The source of these data is US20240309038A1, “NOVEL GALACTOSIDE INHIBITOR OF GALECTINS” (GALECTO BIOTECH AB, priority 2020, published 2024).

The target of the test is Gal-3 (Homo sapiens, UniProt P17931). Kind of test: Fluorescence anisotropy assay, inhibition of galectin / fluorescein tagged saccharide probe interaction. Type of test: binding. As for the experimental part: The affinity of Example 1-59 for galectins were determined by a fluorescence anisotropy assay where the compound was used as an inhibitor of the interaction between galectin and a fluorescein tagged saccharide probe as described Sörme, P., Kahl-Knutsson, B., Huflejt, M., Nilsson, U. J., and Leffler H. (2004) Fluorescence polarization as an analytical tool to evaluate galectin-ligand interactions. Anal. Biochem. 334: 36-47, (Sarme et al., 2004)
Chain of Gal-3 (P17931 whole entry, species assumed): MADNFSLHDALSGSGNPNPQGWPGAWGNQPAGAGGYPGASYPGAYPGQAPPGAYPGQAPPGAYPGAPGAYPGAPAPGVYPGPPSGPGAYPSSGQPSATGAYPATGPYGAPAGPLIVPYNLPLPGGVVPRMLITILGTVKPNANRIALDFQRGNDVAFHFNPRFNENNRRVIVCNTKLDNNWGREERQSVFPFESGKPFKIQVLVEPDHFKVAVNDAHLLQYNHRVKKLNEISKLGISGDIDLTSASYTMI
`Cc1nc([C@@H]2OC(CO)[C@H](O)C(n3cc(-c4cc(F)c(F)c(F)c4)cn3)C2O)n(-c2cc(-c3cc(F)c(F)c(F)c3)ccc2C(F)(F)F)n1` (stereo in doubt) [Example 4, 1-{5-{3-Deoxy-3-[4-(3,4,5-trifluorophenyl)-1H-1,2-pyrazol-1-yl]-β-D-galactopyranosyl}-3-methyl-1H-1,2,4-triazol-1-yl}-2-(trifluoromethyl)-2-(3,4,5-trifluorophenyl)benzene] gave a Kd of 200 nM. In other words, the sub-micromolar range.
`Cc1nc([C@@H]2OC(CO)[C@H](O)C(n3cc(-c4cc(F)c(F)c(F)c4)cn3)C2O)n(-c2ccc3nc(C)sc3c2F)n1` (stereo in doubt) [Example 38, 6-{5-{3-Deoxy-3-[4-(3,4,5-trifluorophenyl)-1H-1,2-pyrazol-1-yl]-β-D-galactopyranosyl}-3-methyl-1H-1,2,4-triazol-1-yl}-7-fluoro-2-methylbenzothiazole] displayed a Kd of 210 nM.
In the case of `Cc1nc([C@@H]2OC(CO)[C@H](O)C(n3cc(-c4cc(F)c(F)c(F)c4)cn3)C2O)n(-c2cc(F)c3nc(C)sc3c2)n1` (stereo in doubt) [Example 39, 6-{5-{3-Deoxy-3-[4-(3,4,5-trifluorophenyl)-1H-1,2-pyrazol-1-yl]-β-D-galactopyranosyl}-3-methyl-1H-1,2,4-triazol-1-yl}-4-fluoro-2-methylbenzothiazole] it was 10 nM; in that of `Cc1nc([C@@H]2OC(CO)[C@H](O)C(n3cc(-c4cc(F)c(F)c(F)c4)cn3)C2O)n(-c2cc(C#N)ccc2C(F)(F)F)n1` (stereo in doubt) [Example 46, 5-Cyano-1-{5-{3-deoxy-3-[4-(3,4,5-trifluorophenyl)-1H-1,2-pyrazol-1-yl]-β-D-galactopyranosyl}-3-methyl-1H-1,2,4-triazol-1-yl}-2-(trifluoromethyl)benzene], 19 nM.
Molecule `Cc1nc([C@@H]2OC(CO)[C@H](O)C(n3cc(-c4cc(F)c(F)c(F)c4)cn3)C2O)n(-c2cncc(Br)c2)n1` (stereo in doubt) [Example 19, 5-Bromo-3-{5-{3-deoxy-3-[4-(3,4,5-trifluorophenyl)-1H-1,2-pyrazol-1-yl]-β-D-galactopyranosyl}-3-methyl-1H-1,2,4-triazol-1-yl}pyridine] had a Kd of 25 nM.
Molecule `Cc1nc([C@@H]2OC(CO)[C@H](O)C(n3cc(-c4cc(F)c(F)c(F)c4)cn3)C2O)n(-c2cc(Cl)c3nc(C)sc3c2)n1` (stereo in doubt) [Example 41, 4-Chloro-6-{5-{3-deoxy-3-[4-(3,4,5-trifluorophenyl)-1H-1,2-pyrazol-1-yl]-β-D-galactopyranosyl}-3-methyl-1H-1,2,4-triazol-1-yl}-2-methylbenzothiazole] displayed a Kd of 10 nM.
In the case of `Cc1nc([C@@H]2OC(CO)[C@H](O)C(n3cc(-c4cc(F)c(Cl)c(F)c4)c(C#N)n3)C2O)n(-c2cc(Cl)ccc2C(F)(F)F)n1` (stereo in doubt) [Example 31, 1-{5-{3-[4-(4-Chloro-3,5-difluorophenyl)-3-cyano-1H-1,2-pyrazol-1-yl]-3-deoxy-β-D-galactopyranosyl}-3-methyl-1H-1,2,4-triazol-1-yl}-5-chloro-2-(trifluoromethyl)benzene] it was 12 nM.
In the case of `Cc1nc([C@@H]2OC(CO)[C@H](O)C(n3cc(-c4cc(F)c(F)c(F)c4)c(-c4ccccc4C)n3)C2O)n(-c2cc(Cl)ccc2C(F)(F)F)n1` (stereo in doubt) [Example 53, 5-Chloro-1-{5-{3-deoxy-3-[4-(3,4,5-trifluorophenyl)-3-(2-methylphenyl)-1H-1,2-pyrazol-1-yl]-β-D-galactopyranosyl}-3-methyl-1H-1,2,4-triazol-1-yl}-2-(trifluoromethyl)benzene] it was 92 nM; in that of `Cc1nnc([C@@H]2OC(CO)[C@H](O)C(n3cc(-c4cc(F)c(Cl)c(F)c4)cn3)C2O)n1-c1cc(Cl)ccc1C(F)(F)F` (single isomer, unassigned) [Example 10, 1-{3-{3-[4-(4-Chloro-3,5-difluorophenyl)-1H-1,2-pyrazol-1-yl]-3-deoxy-β-D-galactopyranosyl}-5-methyl-4H-1,2,4-triazol-4-yl}-5-chloro-2-(trifluoromethyl)benzene], 370 nM; in that of `Cc1nc([C@@H]2OC(CO)[C@H](O)C(n3cc(-c4cc(F)c(F)c(F)c4)cn3)C2O)n(-c2ncc(Cl)s2)n1` (stereo in doubt) [Example 33, 5-Chloro-2-{5-{3-deoxy-3-[4-(3,4,5-trifluorophenyl)-1H-1,2-pyrazol-1-yl]-β-D-galactopyranosyl}-3-methyl-1H-1,2,4-triazol-1-yl}-thiazole], 520 nM.
In the case of `Cc1nc([C@@H]2OC(CO)[C@H](O)C(n3cc(-c4cc(F)c(F)c(F)c4)c(C#N)n3)C2O)n(-c2cc(Cl)ccc2C(F)(F)F)n1` (stereo in doubt) [Example 51, 5-Chloro-1-{5-{3-[3-cyano-4-(3,4,5-trifluorophenyl)-1H-1,2-pyrazol-1-yl]-3-deoxy-β-D-galactopyranosyl}-3-methyl-1H-1,2,4-triazol-1-yl}-2-(trifluoromethyl)benzene] it was 15 nM; in that of `Cc1nc([C@@H]2OC(CO)[C@H](O)C(n3cc(-c4cc(F)c(Cl)cn4)cn3)C2O)n(-c2cc(Cl)ccc2C(F)(F)F)n1` (stereo in doubt) [Example 14, 1-{5-{3-[4-(5-Chloro-4-fluoropyridin-2-yl)-1H-1,2-pyrazol-1-yl]-3-deoxy-β-D-galactopyranosyl}-3-methyl-1H-1,2,4-triazol-1-yl}-5-chloro-2-(trifluoromethyl)benzene], 24 nM.
The molecule `Cc1nc([C@@H]2OC(CO)[C@H](O)C(n3cc(-c4cc(F)c(F)c(F)c4)cn3)C2O)n(-c2cc3sc(C)nc3cc2Br)n1` (stereo in doubt) [Example 43, 5-Bromo-6-{5-{3-deoxy-3-[4-(3,4,5-trifluorophenyl)-1H-1,2-pyrazol-1-yl]-β-D-galactopyranosyl}-3-methyl-1H-1,2,4-triazol-1-yl}-2-methylbenzothiazole] displayed a Kd of 11 nM.
The molecule `Cc1nc([C@@H]2OC(CO)[C@H](O)C(n3cc(-c4cccc(F)n4)cn3)C2O)n(-c2cc(Cl)ccc2C(F)(F)F)n1` (stereo in doubt) [Example 6, 5-Chloro-1-{5-{3-deoxy-3-[4-(6-fluoropyridin-2-yl)-1H-1,2-pyrazol-1-yl]-β-D-galactopyranosyl}-3-methyl-1H-1,2,4-triazol-1-yl}-2-(trifluoromethyl)benzene] returned a Kd of 130 nM.
In the case of `CCc1nc2ccc(-n3nc(C)nc3[C@@H]3OC(CO)[C@H](O)C(n4cc(-c5cc(F)c(F)c(F)c5)cn4)C3O)cc2s1` (stereo in doubt) [Example 35, 6-{5-{3-Deoxy-3-[4-(3,4,5-trifluorophenyl)-1H-1,2-pyrazol-1-yl]-β-D-galactopyranosyl}-3-methyl-1H-1,2,4-triazol-1-yl}-2-ethylbenzothiazole] it was 12 nM; in that of `Cc1nc([C@@H]2OC(CO)[C@H](O)C(n3cc(-c4cc(F)c(C)cn4)cn3)C2O)n(-c2cc(Cl)ccc2C(F)(F)F)n1` (stereo in doubt) [Example 15, 5-Chloro-1-{5-{3-deoxy-3-[4-(4-fluoro-5-methylpyridin-2-yl)-1H-1,2-pyrazol-1-yl]-β-D-galactopyranosyl}-3-methyl-1H-1,2,4-triazol-1-yl}-2-(trifluoromethyl)benzene], 13 nM.
